Results taken from PubChem BioAssay (NCI).
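Briefly, cells in 96-well plates were exposed to five compound concentrations for 48 h, and endpoints were estimated by linear interpolation. The concentration for 50% growth inhibition is given as GI50. The concentration for full growth arrest is given as TGI.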

Columns and labels:
Experiment in all cases: DTP human tumour cell line panel, 48 h; in the data active = GI50 below about 0.43 µM; inactive = the rest
SF-268 CNS = system: SF-268 CNS
NCI-H226 lung = system: NCI-H226 lung
HL-60(TB) leukemia = system: HL-60(TB) leukemia
LOX IMVI melanoma = system: LOX IMVI melanoma
SF-539 CNS = system: SF-539 CNS
SF-295 CNS = system: SF-295 CNS
COLO 205 colon = system: COLO 205 colon
HOP-62 NSCLC = system: HOP-62 NSCLC
HT29 colon = system: HT29 colon
TK-10 renal = system: TK-10 renal
A549 NSCLC = system: A549 NSCLC
EKVX NSCLC = system: EKVX NSCLC
NCI-H460 lung = system: NCI-H460 lung
UACC-62 melanoma = system: UACC-62 melanoma
KM12 colon = system: KM12 colon
UACC-257 melanoma = system: UACC-257 melanoma
OVCAR-3 ovarian = system: OVCAR-3 ovarian
ACHN renal = system: ACHN renal
SN12C renal = system: SN12C renal
HCC-2998 colon = system: HCC-2998 colon
SK-MEL-28 melanoma = system: SK-MEL-28 melanoma
SNB-75 CNS = system: SNB-75 CNS
CCRF-CEM leukemia = system: CCRF-CEM leukemia
MDA-MB-435 = system: MDA-MB-435
SK-OV-3 ovarian = system: SK-OV-3 ovarian
SW-620 colon = system: SW-620 colon
MALME-3M melanoma = system: MALME-3M melanoma
DU-145 prostate = system: DU-145 prostate
BT-549 breast = system: BT-549 breast
SK-MEL-2 melanoma = system: SK-MEL-2 melanoma
M14 melanoma = system: M14 melanoma
PC-3 prostate = system: PC-3 prostate
RXF 393 renal = system: RXF 393 renal
HCT-15 colon = system: HCT-15 colon
OVCAR-5 ovarian = system: OVCAR-5 ovarian
MDA-MB-231 breast = system: MDA-MB-231 breast
CAKI-1 renal = system: CAKI-1 renal
IGROV1 ovarian = system: IGROV1 ovarian
HS 578T breast = system: HS 578T breast
U251 CNS = system: U251 CNS
MOLT-4 leukemia = system: MOLT-4 leukemia
K-562 leukemia = system: K-562 leukemia
RPMI-8226 leukemia = system: RPMI-8226 leukemia
NCI-H23 lung = system: NCI-H23 lung
T-47D breast = system: T-47D breast
SNB-19 CNS = system: SNB-19 CNS
UO-31 renal = system: UO-31 renal
HOP-92 NSCLC = system: HOP-92 NSCLC
A498 renal = system: A498 renal
HCT-116 colon = system: HCT-116 colon
OVCAR-4 ovarian = system: OVCAR-4 ovarian
786-0 renal = system: 786-0 renal
NCI/ADR-RES ovarian = system: NCI/ADR-RES ovarian
MCF7 breast = system: MCF7 breast
SK-MEL-5 melanoma = system: SK-MEL-5 melanoma
NCI-H522 lung = system: NCI-H522 lung
OVCAR-8 ovarian = system: OVCAR-8 ovarian

CC1=NOC(C)(O)/C1=N/O (centres undefined)
> 100 µM: TGI (SF-268 CNS) | TGI (NCI-H226 lung) | TGI (HL-60(TB) leukemia) | TGI (LOX IMVI melanoma) | TGI (SF-539 CNS) | TGI (SF-295 CNS) | TGI (COLO 205 colon) | TGI (HOP-62 NSCLC) | TGI (HT29 colon) | TGI (TK-10 renal) | TGI (A549 NSCLC) | TGI (EKVX NSCLC) | TGI (NCI-H460 lung) | TGI (UACC-62 melanoma) | TGI (KM12 colon) | TGI (UACC-257 melanoma) | TGI (OVCAR-3 ovarian) | TGI (ACHN renal) | TGI (SN12C renal) | TGI (HCC-2998 colon) | TGI (SK-MEL-28 melanoma) | TGI (SNB-75 CNS) | TGI (CCRF-CEM leukemia) | TGI (MDA-MB-435) | TGI (SK-OV-3 ovarian) | TGI (SW-620 colon) | TGI (MALME-3M melanoma) | TGI (DU-145 prostate) | TGI (BT-549 breast) | TGI (SK-MEL-2 melanoma) | TGI (M14 melanoma) | TGI (PC-3 prostate) | TGI (RXF 393 renal) | TGI (HCT-15 colon) | TGI (OVCAR-5 ovarian) | TGI (MDA-MB-231 breast) | TGI (CAKI-1 renal) | TGI (IGROV1 ovarian) | TGI (HS 578T breast) | TGI (U251 CNS) | TGI (MOLT-4 leukemia) | TGI (K-562 leukemia) | TGI (RPMI-8226 leukemia) | TGI (NCI-H23 lung) | TGI (T-47D breast) | TGI (SNB-19 CNS) | TGI (UO-31 renal) | TGI (HOP-92 NSCLC) | TGI (A498 renal) | TGI (HCT-116 colon) | TGI (OVCAR-4 ovarian) | TGI (786-0 renal) | TGI (NCI/ADR-RES ovarian) | TGI (MCF7 breast) | TGI (SK-MEL-5 melanoma) | TGI (NCI-H522 lung) | TGI (OVCAR-8 ovarian)

COc1cc(/C=C\c2cc(/C=C\c3ccc(O)c(OC)c3)n(C(=O)COc3ccc(Cl)cc3Cl)n2)ccc1O
7.13 µM: TGI (UACC-257 melanoma)
21.1 µM: TGI (NCI/ADR-RES ovarian)
4.01 µM: TGI (COLO 205 colon)
2.3 µM: TGI (UO-31 renal)
3.99 µM: TGI (T-47D breast)
0.837 µM: TGI (NCI-H522 lung)
14.7 µM: TGI (MDA-MB-435)
3.16 µM: TGI (HOP-62 NSCLC)
7.62 µM: TGI (RPMI-8226 leukemia)
2.52 µM: TGI (786-0 renal)
7.03 µM: TGI (HT29 colon)
5.03 µM: TGI (MALME-3M melanoma)
14.2 µM: TGI (NCI-H460 lung)
10.3 µM: TGI (A549 NSCLC) | TGI (IGROV1 ovarian)
3.29 µM: TGI (LOX IMVI melanoma)
7.32 µM: TGI (SK-MEL-28 melanoma)
10.2 µM: TGI (NCI-H226 lung)
3.46 µM: TGI (MOLT-4 leukemia)
8.32 µM: TGI (OVCAR-5 ovarian)
9.94 µM: TGI (DU-145 prostate)
12 µM: TGI (UACC-62 melanoma) | TGI (A498 renal)
5 µM: TGI (NCI-H23 lung)
2.33 µM: TGI (MCF7 breast)
8.02 µM: TGI (PC-3 prostate)
9.13 µM: TGI (ACHN renal)
7.94 µM: TGI (HOP-92 NSCLC)
3.61 µM: TGI (HCT-15 colon)
inactive: GI50 (SF-268 CNS) 0.621 µM | GI50 (NCI-H226 lung) 2.98 µM | GI50 (LOX IMVI melanoma) 0.497 µM | GI50 (SF-295 CNS) 3.07 µM | GI50 (COLO 205 colon) 1.98 µM | GI50 (HOP-62 NSCLC) 0.519 µM | GI50 (HT29 colon) 2.75 µM | GI50 (TK-10 renal) 1.79 µM | GI50 (A549 NSCLC) 1.31 µM | GI50 (EKVX NSCLC) 1.98 µM | GI50 (NCI-H460 lung) 0.517 µM | GI50 (UACC-62 melanoma) 0.552 µM | GI50 (KM12 colon) 0.506 µM | GI50 (UACC-257 melanoma) 2.19 µM | GI50 (ACHN renal) 0.476 µM | GI50 (SN12C renal) 0.935 µM | GI50 (HCC-2998 colon) 2.89 µM | GI50 (SK-MEL-28 melanoma) 1.19 µM | GI50 (SNB-75 CNS) 0.994 µM | GI50 (CCRF-CEM leukemia) 0.432 µM | GI50 (SK-OV-3 ovarian) 1.26 µM | GI50 (SW-620 colon) 0.659 µM | GI50 (MALME-3M melanoma) 0.488 µM | GI50 (DU-145 prostate) 0.833 µM | GI50 (BT-549 breast) 0.526 µM | GI50 (PC-3 prostate) 1.8 µM | GI50 (RXF 393 renal) 1.27 µM | GI50 (OVCAR-5 ovarian) 2.71 µM | GI50 (MDA-MB-231 breast) 2.38 µM | GI50 (CAKI-1 renal) 0.818 µM | GI50 (IGROV1 ovarian) 1.99 µM | GI50 (HS 578T breast) 1.2 µM | GI50 (U251 CNS) 0.916 µM | GI50 (RPMI-8226 leukemia) 0.569 µM | GI50 (NCI-H23 lung) 1.06 µM | GI50 (T-47D breast) 1.25 µM | GI50 (SNB-19 CNS) 1.41 µM | GI50 (HOP-92 NSCLC) 2.93 µM | GI50 (A498 renal) 3.82 µM | GI50 (OVCAR-4 ovarian) 1.29 µM | GI50 (786-0 renal) 0.634 µM | GI50 (NCI/ADR-RES ovarian) 0.538 µM | GI50 (SK-MEL-5 melanoma) 0.661 µM | GI50 (OVCAR-8 ovarian) 1.59 µM
3.43 µM: TGI (SK-OV-3 ovarian)
2.85 µM: TGI (SF-539 CNS)
11.7 µM: TGI (SNB-19 CNS)
3.03 µM: TGI (SK-MEL-5 melanoma)
9.84 µM: TGI (SF-268 CNS)
65.8 µM: TGI (SN12C renal)
3.33 µM: TGI (RXF 393 renal)
26.2 µM: TGI (KM12 colon)
> 100 µM: TGI (CCRF-CEM leukemia) | TGI (SW-620 colon) | TGI (CAKI-1 renal) | TGI (HS 578T breast) | TGI (K-562 leukemia) | TGI (OVCAR-4 ovarian)
active: GI50 (HL-60(TB) leukemia) 0.314 µM | GI50 (SF-539 CNS) 0.38 µM | GI50 (MDA-MB-435) 0.243 µM | GI50 (SK-MEL-2 melanoma) 0.302 µM | GI50 (M14 melanoma) 0.349 µM | GI50 (HCT-15 colon) 0.342 µM | GI50 (MOLT-4 leukemia) 0.425 µM | GI50 (K-562 leukemia) 0.381 µM | GI50 (UO-31 renal) 0.362 µM | GI50 (HCT-116 colon) 0.416 µM | GI50 (MCF7 breast) 0.336 µM | GI50 (NCI-H522 lung) 0.196 µM
6.09 µM: TGI (OVCAR-8 ovarian)
9.72 µM: TGI (EKVX NSCLC)
12.4 µM: TGI (HCC-2998 colon)
1.31 µM: TGI (HL-60(TB) leukemia)
7.81 µM: TGI (SNB-75 CNS)
6.15 µM: TGI (U251 CNS)
3.34 µM: TGI (BT-549 breast)
8.06 µM: TGI (TK-10 renal)
23.4 µM: TGI (MDA-MB-231 breast)
6.21 µM: TGI (HCT-116 colon)
4.83 µM: TGI (M14 melanoma)
8.87 µM: TGI (SF-295 CNS)
1.54 µM: TGI (SK-MEL-2 melanoma)
